Assay results taken from patent US12234211B2, “Cycloolefin substituted heteroaromatic compounds and their use” (HUTCHISON MEDIPHARMA LIMITED, priority 2017, dated 2025).

Experiments:
IDH2-R140Q = molecular target: T1, IDH2-R140Q (Homo sapiens, UniProt P48735, R140Q); test: Fluorescent determination of IDH2-R140Q cell activity (2-HG in U87MGR140Q cells); format: cell-based; conditions: 72 hours incubation, read-out: IC50 (2-HG inhibition)
T1 construct: expressed in transfected cells
T1 sequence (P48735 40-452 R140Q): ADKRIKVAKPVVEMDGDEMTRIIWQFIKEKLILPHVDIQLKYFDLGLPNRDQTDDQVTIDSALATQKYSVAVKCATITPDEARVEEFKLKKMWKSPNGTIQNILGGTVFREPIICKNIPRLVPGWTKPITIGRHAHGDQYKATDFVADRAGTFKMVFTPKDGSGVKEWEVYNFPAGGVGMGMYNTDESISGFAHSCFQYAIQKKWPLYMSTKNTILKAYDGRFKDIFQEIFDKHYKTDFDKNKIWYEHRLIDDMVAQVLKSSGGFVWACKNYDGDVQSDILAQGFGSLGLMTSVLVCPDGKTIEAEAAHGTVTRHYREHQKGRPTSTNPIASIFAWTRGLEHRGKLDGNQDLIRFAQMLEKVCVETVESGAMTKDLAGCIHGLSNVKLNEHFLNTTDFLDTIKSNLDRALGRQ
Description: Enzyme reaction solution: 1 mM nicotinamide adenine dinucleotide (NAD), 0.6 ng/μL D-2-hydroxyglutarate dehydrogenase (D2HGDH), 0.8 U/mL lipoamidase dehydrogenase (Diaphorase) and 60 μM Resazurin in 40 mM Tris.HCl pH 8.8 assay buffer.
Standard curve stock solution: The standard of 2-HG sodium salt was serially diluted in serum-free MEM medium to make a standard curve stock solution.
100 μL of U87MGR140Q cells were seeded at a density of 6×10^4/mL per well in a 96-well plate a.
From each well of 96-well plate a, 50 μL of the culture supernatant was transferred to the corresponding well of 96-well plate b; at the same time, 50 μL of standard curve stocking solution was added to other wells of 96-well plate b. Then 10 μl of 360 mM hydrochloric acid was added to all the wells. After shaking and mixing, the plate was placed on ice for 10 minutes, and then 10 μl of 420 mM Tris-base was added. After shaking and mixing, the plate was placed on ice for additional 5 minutes. Then the plate was centrifuged at 2500 rpm for 10 minutes.
After centrifuging, from each well of 96-well plate b, 20 μL of the supernatant was transferred to 96-well plate c. An additional 80 μL of the enzyme reaction solution was added to each well and incubated at 25° C. for 90 minutes.
A standard curve of the fluorescence value vs. the corresponding 2-HG concentration was made, and the 2-HG concentration corresponding to each concentration point of the compound was calculated, then the inhibition ratio was calculated, and the data was analyzed using XLfit5 (ID Business Solutions Limited) software to obtain the IC50 value.
The inhibition ratio was calculated as follows: Inhibition Ratio (IH %)=(1-2-HG concentration of test compound treated cells/2-HG concentration of control cells)×100%.

IDH1-R132H = molecular target: T2, IDH1-R132H (Homo sapiens, UniProt O75874, R132H); test: Fluorescent determination of IDH1-R132H cell activity (2-HG in U87MGR132H cells); format: cell-based; conditions: 2-HG inhibition in U87MGR132H cells transfected with IDH1-R132H mutant plasmid
T2 construct: expressed in transfected cells; host or cells: U87MG cells (U87MGR132H)
T2 sequence (O75874 whole entry R132H): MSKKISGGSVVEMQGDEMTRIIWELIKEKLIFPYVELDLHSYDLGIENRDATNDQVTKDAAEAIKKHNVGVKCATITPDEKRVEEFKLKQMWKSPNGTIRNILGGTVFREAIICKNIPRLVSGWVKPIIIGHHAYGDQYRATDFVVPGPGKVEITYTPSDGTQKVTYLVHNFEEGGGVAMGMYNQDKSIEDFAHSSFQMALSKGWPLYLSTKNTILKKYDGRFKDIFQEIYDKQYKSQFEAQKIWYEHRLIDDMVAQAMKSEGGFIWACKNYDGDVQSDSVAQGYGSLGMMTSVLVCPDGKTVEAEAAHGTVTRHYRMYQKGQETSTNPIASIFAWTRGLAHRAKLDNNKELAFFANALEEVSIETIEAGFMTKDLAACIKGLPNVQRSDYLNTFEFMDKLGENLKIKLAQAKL

For CC(C)(C)ONc1nc(Nc2ccnc(C(F)(F)F)n2)nc(C2=C(F)C(O)C(F)(F)CC2)n1 (stereo not shown) [Compound 214], the IC50 (IDH2-R140Q) was 108 nM and the IC50 (IDH1-R132H) was over 10000 nM.
C[C@H](Nc1nc(NC2CC(F)(F)C2)nc(C2=C(F)C(O)CCC2)n1)C(F)(F)F (mixture of isomers) [Compound 32] showed an IC50 (IDH2-R140Q) of 80 nM and an IC50 (IDH1-R132H) of 610 nM.
With CCCNc1nc(N[C@H](C)C(F)(F)F)nc(C2=C(F)C(O)[C@H](F)CC2)n1 (single isomer, unassigned) [Compound 230] the IC50 (IDH2-R140Q) was 658 nM and the IC50 (IDH1-R132H) was over 10000 nM.
Work on C[C@@H](Nc1nc(NC2CC3(CCC3)C2)nc(C2=C(F)C(O)CCC2)n1)C(F)(F)F (mixture of isomers) [Compound 159] yielded an IC50 (IDH2-R140Q) of 205 nM and an IC50 (IDH1-R132H) of 2720 nM.
Work on [2H]C1(O)C(F)=C(c2nc(NC3CC3)nc(N[C@@H](C)C(F)(F)F)n2)CCC1(F)F (mixture of isomers) [Compound 278] yielded an IC50 (IDH2-R140Q) of 148 nM and an IC50 (IDH1-R132H) of over 10000 nM.
With C[C@@H](Nc1nc(N[C@H](C)C(F)(F)F)nc(C2=C(F)C(=O)C(F)CC2)n1)C(F)(F)F (mixture of isomers) [Compound 242, 3-(4,6-Bis(((R)-1,1,1-trifluoropropan-2-yl)amino)-1,3,5-triazin-2-yl)-2,6-difluoro-cyclohex-2-en-1-one] the IC50 (IDH2-R140Q) was 802 nM and the IC50 (IDH1-R132H) was 3520 nM.
C[C@@H](Nc1nc(NC2CC(F)(F)C2)nc(C2=C(F)C(O)CCC2)n1)C(F)(F)F (mixture of isomers) [Compound 31] gave an IC50 (IDH2-R140Q) of 110 nM and an IC50 (IDH1-R132H) of 280 nM.
Molecule OC1C(F)=C(c2nc(Nc3ccnc(C(F)(F)F)c3)nc(N3CCC(F)(F)C3)n2)CCC1(F)F (stereo not shown) [Compound 218] has an IC50 (IDH2-R140Q) of 381 nM and an IC50 (IDH1-R132H) of over 10000 nM.
In the case of C[C@@H](Nc1nc(NC2CCCC2(F)F)nc(C2=C(F)C(O)CCC2)n1)C(F)(F)F (mixture of isomers) [Compound 166], the IC50 (IDH2-R140Q) is reported as 180 nM and the IC50 (IDH1-R132H) is reported as 1350 nM.
For C[C@@H](Nc1nc(N[C@H](C)C(F)(F)F)nc(C2=C(F)C(O)C(F)(F)CC2)n1)C(F)(F)F (single isomer, unassigned) [Compound 198], the IC50 (IDH2-R140Q) was 845 nM and the IC50 (IDH1-R132H) was 1890 nM.
For C[C@@H](Nc1nc(NC2CCCC2)nc(C2=CC(O)CCC2)n1)C(F)(F)F (mixture of isomers) [Compound 130], the IC50 (IDH2-R140Q) was 67 nM and the IC50 (IDH1-R132H) was 733 nM.
For C[C@@H](Nc1nc(NCC2CC2)nc(C2=C(F)C(O)CCC2)n1)C(F)(F)F (stereo partly shown) [Compound 80], the IC50 (IDH2-R140Q) was 79 nM and the IC50 (IDH1-R132H) was 2700 nM.
CC(C)(C)ONc1nc(Nc2ccnc(F)c2)nc(C2=C(F)C(O)C(F)(F)CC2)n1 (stereo not shown) [Compound 215] was tested, and the IC50 (IDH2-R140Q) was 79 nM and the IC50 (IDH1-R132H) was over 10000 nM.
In the case of C[C@H](Nc1nc(N[C@@H](C)C(F)(F)F)nc(C2=C(F)C(O)CCC2)n1)C(F)(F)F (mixture of isomers) [Compound 14], the IC50 (IDH2-R140Q) is reported as 230 nM and the IC50 (IDH1-R132H) is reported as 1330 nM.
[2H]C1(O)C=C(c2nc(N[C@H](C)C(F)(F)F)nc(N[C@H](C)C(F)(F)F)n2)CCC1(F)F (mixture of isomers) [Compound 282] was tested, and the IC50 (IDH2-R140Q) was 343 nM and the IC50 (IDH1-R132H) was 444 nM.
C[C@H](Nc1nc(N[C@@H](C)C(F)(F)F)nc(C2=C(F)C(O)C(F)(F)CC2)n1)C(F)(F)F (mixture of isomers) [Compound 283] showed an IC50 (IDH2-R140Q) of 174 nM and an IC50 (IDH1-R132H) of 1320 nM.
Work on CCONc1nc(Nc2ccnc(C(F)(F)F)c2)nc(C2=C(F)C(O)C(F)(F)CC2)n1 (stereo not shown) [Compound 212] yielded an IC50 (IDH2-R140Q) of 63 nM and an IC50 (IDH1-R132H) of over 10000 nM.
CC(C)Nc1nc(Nc2ccc3ccnn3c2)nc(C2=C(F)C(O)CCC2)n1 (racemic) [Compound 200] gave an IC50 (IDH2-R140Q) of 632 nM and an IC50 (IDH1-R132H) of over 10000 nM.
In the case of C[C@@H](Nc1nc(NC2CCC(F)(F)CC2)nc(C2=CC(O)CCC2)n1)C(F)(F)F (stereo partly shown) [Compound 181], the IC50 (IDH2-R140Q) is reported as 177 nM and the IC50 (IDH1-R132H) is reported as 476 nM.
With CC(Nc1nc(N[C@H](C)C(F)(F)F)nc(C2=C(F)C(O)CCC2)n1)C(F)F (mixture of isomers) [Compound 174] the IC50 (IDH2-R140Q) was 96 nM and the IC50 (IDH1-R132H) was 343 nM.
C[C@@H](Nc1nc(NCC2CC2)nc(C2=C(F)C(O)C(F)CC2)n1)C(F)(F)F (single isomer, unassigned) [Compound 226] was tested, and the IC50 (IDH2-R140Q) was 361 nM and the IC50 (IDH1-R132H) was 5120 nM.
In the case of OC1CCCCC(c2nc(NC3CC(F)(F)C3)nc(NC3CC(F)(F)C3)n2)=C1F (stereo not shown) [Compound 39, (*)3-(4,6-Bis((3,3-difluorocyclobutyl)amino)-1,3,5-triazin-2-yl)-2-fluorocyclohept-2-en-1-ol], the IC50 (IDH2-R140Q) is reported as 164 nM and the IC50 (IDH1-R132H) is reported as 1910 nM.
In the case of CONc1nc(Nc2ccnc(C(F)(F)F)c2)nc(C2=C(F)C(O)C(F)(F)CC2)n1 (stereo not shown) [Compound 298], the IC50 (IDH2-R140Q) is reported as 620 nM and the IC50 (IDH1-R132H) is reported as over 10000 nM.
With C[C@@H](CF)Nc1nc(N[C@H](C)C(F)(F)F)nc(C2=C(F)C(O)CCC2)n1 (mixture of isomers) [Compound 170] the IC50 (IDH2-R140Q) was 1380 nM and the IC50 (IDH1-R132H) was 6930 nM.
C[C@@H](Nc1nc(N[C@H](C)C(F)(F)F)nc(C2=C(F)C(O)CCC2)n1)C(F)(F)F (stereo partly drawn) [Compound 82, (*)3-(4,6-Bis(((R)-1,1,1-trifluoropropan-2-yl)amino)-1,3,5-triazin-2-yl)-2-fluorocyclohex-2-en-6,6-D2-1-ol] showed an IC50 (IDH2-R140Q) of 75 nM and an IC50 (IDH1-R132H) of 181 nM.
For C[C@H](Nc1nc(N[C@H](C)C(F)(F)F)nc(C2=C(F)C(O)CCC2)n1)c1ccccc1 (mixture of isomers) [Compound 157], the IC50 (IDH2-R140Q) was 141 nM and the IC50 (IDH1-R132H) was 4350 nM.
With C[C@@H](Nc1nc(NCC2CCC2(F)F)nc(C2=C(F)C(O)CCC2)n1)C(F)(F)F (mixture of isomers) [Compound 171] the IC50 (IDH2-R140Q) was 268 nM and the IC50 (IDH1-R132H) was 1570 nM.
Molecule OC1CCCC(c2nc(NC3CC3)nc(NC3CC(F)(F)C3)n2)=C1F (stereo not shown) [Compound 49] has an IC50 (IDH2-R140Q) of 210 nM.
[2H]C([2H])([2H])C([2H])(Nc1nc(NC2CC(F)(F)C2)nc(C2=C(F)C(O)CCC2)n1)C([2H])([2H])[2H] (stereo not shown) [Compound 55] showed an IC50 (IDH2-R140Q) of 103 nM.
Work on C[C@@H](Nc1nc(NC2CC23CC3)nc(C2=C(F)C(O)CCC2)n1)C(F)(F)F (mixture of isomers) [Compound 42] yielded an IC50 (IDH2-R140Q) of 152 nM.
With CC(C)Nc1nc(Nc2cnn(C)c2)nc(C2=C(F)C(O)CCC2)n1 (stereo not shown) [Compound 57] the IC50 (IDH2-R140Q) was 2180 nM.
Molecule C[C@@H](Nc1nc(N[C@@H]2C[C@@H]2F)nc(C2=C(F)C(O)CCC2)n1)C(F)(F)F (mixture of isomers) [Compound 16] has an IC50 (IDH2-R140Q) of 326 nM.
With C[C@@H](Nc1nc(NOC(C)(C)C)nc(C2=C(F)C(O)CCC2)n1)C(F)(F)F (mixture of isomers) [Compound 172] the IC50 (IDH2-R140Q) was 344 nM.
For C[C@@H](Nc1nc(N[C@H](C)C2CC2)nc(C2=CCCCC2)n1)C1CC1 [Compound 191], the IC50 (IDH2-R140Q) was 999 nM.
In the case of C[C@@H](Nc1nc(NCC(C)(C)O)nc(C2=CCCCC2)n1)C(F)(F)F [Compound 188], the IC50 (IDH2-R140Q) is reported as 5020 nM.
Molecule [2H]C1(O)CCCC(c2nc(N[C@H](C)C(F)(F)F)nc(NC([2H])(C([2H])([2H])[2H])C([2H])([2H])[2H])n2)=C1F (mixture of isomers) [Compound 29] has an IC50 (IDH2-R140Q) of 177 nM.
Work on C[C@@H](Nc1nc(NCC(F)(F)F)nc(C2=C(F)C(O)C(F)(F)CC2)n1)C(F)(F)F (mixture of isomers) [Compound 245] yielded an IC50 (IDH1-R132H) of 1500 nM.
In the case of CCCNc1nc(N[C@H](C)C(F)(F)F)nc(C2=CC(O)CCC2)n1 (mixture of isomers) [Compound 133], the IC50 (IDH2-R140Q) is reported as 174 nM.
Work on CC(C)Nc1nc(N[C@H](C)C(F)(F)F)nc(C2=CCCC(O)C2)n1 (mixture of isomers) [Compound 144, 3-(4-(Isopropylamino)-6-(((R)-1,1,1-trifluoropropan-2-yl)amino)-1,3,5-triazin-2-yl)cyclohex-3-en-1-ol] yielded an IC50 (IDH2-R140Q) of 2750 nM.
In the case of OC1CCCC(c2nc(Nc3ccc(F)cc3)nc(Nc3ccnc(C(F)(F)F)c3)n2)=C1F (stereo not shown) [Compound 72], the IC50 (IDH2-R140Q) is reported as 42 nM.
